Reference: PubChem BioAssay (NCI)
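Compound exposure: 48 hours, 5 concentrations, 96-well plates. The concentration for 50% growth inhibition is given as GI50. TGI: total growth inhibition.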

Assays:
Test in all cases: NCI-60 cell line screen, 48 h
[1] = tested on: 786-0 renal
[2] = tested on: A498 renal
[3] = tested on: A549 NSCLC
[4] = tested on: ACHN renal
[5] = tested on: BT-549 breast
[6] = tested on: CAKI-1 renal
[7] = tested on: CCRF-CEM leukemia
[8] = tested on: COLO 205 colon
[9] = tested on: DU-145 prostate
[10] = tested on: EKVX NSCLC
[11] = tested on: HCT-116 colon
[12] = tested on: HCT-15 colon
[13] = tested on: HL-60(TB) leukemia
[14] = tested on: HOP-62 NSCLC
[15] = tested on: HOP-92 NSCLC
[16] = tested on: HS 578T breast
[17] = tested on: HT29 colon
[18] = tested on: IGROV1 ovarian
[19] = tested on: K-562 leukemia
[20] = tested on: KM12 colon
[21] = tested on: LOX IMVI melanoma
[22] = tested on: M14 melanoma
[23] = tested on: MALME-3M melanoma
[24] = tested on: MCF7 breast
[25] = tested on: MDA-MB-231 breast
[26] = tested on: MDA-MB-435
[27] = tested on: MOLT-4 leukemia
[28] = tested on: NCI-H226 lung
[29] = tested on: NCI-H460 lung
[30] = tested on: NCI/ADR-RES ovarian
[31] = tested on: OVCAR-3 ovarian
[32] = tested on: OVCAR-4 ovarian
[33] = tested on: OVCAR-5 ovarian
[34] = tested on: OVCAR-8 ovarian
[35] = tested on: PC-3 prostate
[36] = tested on: RPMI-8226 leukemia
[37] = tested on: RXF 393 renal
[38] = tested on: SF-268 CNS
[39] = tested on: SF-295 CNS
[40] = tested on: SF-539 CNS
[41] = tested on: SK-MEL-2 melanoma
[42] = tested on: SK-MEL-28 melanoma
[43] = tested on: SK-MEL-5 melanoma
[44] = tested on: SK-OV-3 ovarian
[45] = tested on: SNB-19 CNS
[46] = tested on: SNB-75 CNS
[47] = tested on: SR leukemia
[48] = tested on: SW-620 colon
[49] = tested on: TK-10 renal
[50] = tested on: U251 CNS
[51] = tested on: UACC-257 melanoma
[52] = tested on: UACC-62 melanoma
[53] = tested on: UO-31 renal
[54] = tested on: HCC-2998 colon
[55] = tested on: NCI-H23 lung
[56] = tested on: NCI-H522 lung
[57] = tested on: SN12C renal
[58] = tested on: T-47D breast

O=[N+]([O-])c1cc(Cl)c(Cl)c([N+](=O)[O-])c1Cl
GI50 [1]: 1880 nM
TGI [1]: 3430 nM
GI50 [2]: 6400 nM
TGI [2]: 20900 nM
GI50 [3]: 1780 nM
TGI [3]: 3650 nM
GI50 [4]: 1760 nM
TGI [4]: 3600 nM
GI50 [5]: 1810 nM
TGI [5]: 3390 nM
GI50 [6]: 184 nM
TGI [6]: 360 nM
GI50 [7]: 236 nM
TGI [7]: > 100000 nM
GI50 [8]: 1550 nM
TGI [8]: 2910 nM
GI50 [9]: 1630 nM
TGI [9]: 2990 nM
GI50 [10]: 2230 nM
TGI [10]: 5320 nM
GI50 [11]: 624 nM
TGI [11]: 2120 nM
GI50 [12]: 1000 nM
TGI [12]: 2840 nM
GI50 [13]: 439 nM
TGI [13]: 2920 nM
GI50 [14]: 1820 nM
TGI [14]: 3250 nM
GI50 [15]: 1920 nM
TGI [15]: 3760 nM
GI50 [16]: 2350 nM
TGI [16]: 7470 nM
GI50 [17]: 1180 nM
TGI [17]: 4000 nM
GI50 [18]: 1420 nM
TGI [18]: 3020 nM
GI50 [19]: 353 nM
TGI [19]: > 100000 nM
GI50 [20]: 1440 nM
TGI [20]: 2970 nM
GI50 [21]: 299 nM
TGI [21]: 1110 nM
GI50 [22]: 642 nM
TGI [22]: 2230 nM
GI50 [23]: 473 nM
TGI [23]: 2180 nM
GI50 [24]: 1140 nM
TGI [24]: 3420 nM
GI50 [25]: 1810 nM
TGI [25]: 3790 nM
GI50 [26]: 1700 nM
TGI [26]: 3460 nM
GI50 [27]: 436 nM
TGI [27]: 5420 nM
GI50 [28]: 2610 nM
TGI [28]: 7160 nM
GI50 [29]: 3300 nM
TGI [29]: > 100000 nM
GI50 [30]: 1910 nM
TGI [30]: 3750 nM
GI50 [31]: 1690 nM
TGI [31]: 3070 nM
GI50 [32]: 1690 nM
TGI [32]: 3060 nM
GI50 [33]: 2130 nM
TGI [33]: 4180 nM
GI50 [34]: 1340 nM
TGI [34]: 2970 nM
GI50 [35]: 1810 nM
TGI [35]: 3570 nM
GI50 [36]: 422 nM
TGI [36]: 2610 nM
GI50 [37]: 1820 nM
TGI [37]: 3250 nM
GI50 [38]: 1770 nM
TGI [38]: 3390 nM
GI50 [39]: 1990 nM
TGI [39]: 4400 nM
GI50 [40]: 2530 nM
TGI [40]: 6940 nM
GI50 [41]: 1800 nM
TGI [41]: 3370 nM
GI50 [42]: 1740 nM
TGI [42]: 3140 nM
GI50 [43]: 1730 nM
TGI [43]: 3470 nM
GI50 [44]: 3880 nM
TGI [44]: 13400 nM
GI50 [45]: 6550 nM
TGI [45]: 22600 nM
GI50 [46]: 1470 nM
TGI [46]: 2810 nM
GI50 [47]: 538 nM
TGI [47]: 4930 nM
GI50 [48]: 763 nM
TGI [48]: 3360 nM
GI50 [49]: 1530 nM
TGI [49]: 2990 nM
GI50 [50]: 1030 nM
TGI [50]: 2610 nM
GI50 [51]: 1560 nM
TGI [51]: 3080 nM
GI50 [52]: 1940 nM
TGI [52]: 4350 nM
GI50 [53]: 1170 nM
TGI [53]: 2450 nM

Nc1c(C(=O)c2ccc(Cl)cc2)sc(Nc2ccccc2)c1-c1nc2ccccc2s1
GI50 [1]: 2800 nM
TGI [1]: 8180 nM
GI50 [2]: 3670 nM
TGI [2]: 19100 nM
GI50 [3]: > 100000 nM
TGI [3]: > 100000 nM
GI50 [4]: 1610 nM
TGI [4]: > 100000 nM
GI50 [5]: 2290 nM
TGI [5]: 19500 nM
GI50 [7]: 13900 nM
TGI [7]: > 100000 nM
GI50 [10]: 2000 nM
TGI [10]: > 100000 nM
GI50 [54]: > 100000 nM
TGI [54]: > 100000 nM
GI50 [11]: 5040 nM
TGI [11]: > 100000 nM
GI50 [12]: 2440 nM
TGI [12]: > 100000 nM
GI50 [13]: > 57300 nM
TGI [13]: > 100000 nM
GI50 [14]: 3710 nM
TGI [14]: 65800 nM
GI50 [15]: 777 nM
TGI [15]: 4700 nM
GI50 [16]: 2560 nM
TGI [16]: 26900 nM
GI50 [18]: 1420 nM
TGI [18]: > 100000 nM
GI50 [19]: 3100 nM
TGI [19]: > 100000 nM
GI50 [20]: 812 nM
TGI [20]: > 100000 nM
GI50 [21]: 3250 nM
TGI [21]: > 100000 nM
GI50 [22]: 2650 nM
TGI [22]: > 100000 nM
GI50 [23]: 751 nM
TGI [23]: > 100000 nM
GI50 [24]: 1650 nM
TGI [24]: > 100000 nM
GI50 [25]: 2350 nM
TGI [25]: > 100000 nM
GI50 [27]: 12300 nM
TGI [27]: > 89600 nM
GI50 [28]: 1580 nM
TGI [28]: > 100000 nM
GI50 [55]: 1640 nM
TGI [55]: 18500 nM
GI50 [29]: 776 nM
TGI [29]: > 100000 nM
GI50 [56]: 3130 nM
TGI [56]: > 74100 nM
GI50 [30]: 3340 nM
TGI [30]: > 100000 nM
GI50 [33]: > 100000 nM
TGI [33]: > 100000 nM
GI50 [34]: 2680 nM
TGI [34]: > 100000 nM
GI50 [35]: 2350 nM
TGI [35]: > 100000 nM
GI50 [36]: 6050 nM
TGI [36]: > 100000 nM
GI50 [37]: 10500 nM
TGI [37]: 33100 nM
GI50 [38]: 1440 nM
TGI [38]: > 100000 nM
GI50 [39]: 2180 nM
TGI [39]: 10800 nM
GI50 [40]: 2630 nM
TGI [40]: > 100000 nM
GI50 [41]: 3890 nM
TGI [41]: 21000 nM
GI50 [42]: 4310 nM
TGI [42]: > 100000 nM
GI50 [43]: 16600 nM
TGI [43]: > 100000 nM
GI50 [44]: 1990 nM
TGI [44]: 19000 nM
GI50 [57]: > 20200 nM
TGI [57]: > 100000 nM
GI50 [45]: 4560 nM
TGI [45]: > 100000 nM
GI50 [46]: 1890 nM
TGI [46]: 9500 nM
GI50 [47]: 857 nM
TGI [47]: > 100000 nM
GI50 [48]: 1200 nM
TGI [48]: > 100000 nM
GI50 [58]: 1460 nM
TGI [58]: > 100000 nM
GI50 [49]: 2130 nM
TGI [49]: > 21400 nM
GI50 [50]: 3060 nM
TGI [50]: 36300 nM
GI50 [51]: > 100000 nM
TGI [51]: > 100000 nM
GI50 [52]: 2270 nM
TGI [52]: > 100000 nM
GI50 [53]: 2160 nM
TGI [53]: > 100000 nM
